# From US8815891B2, “Tricyclic derivative or pharmaceutically acceptable salts thereof, preparation method thereof, and pharmaceutical composition containing the same” (Je Il Pharmaceutical Co., Ltd., priority 2008, dated 2014)
# Where a name gives a salt, the structure may show the parent alone.
# Target: PARP-1 enzyme (Homo sapiens (Human), UniProt P09874)
# Assay: Poly(ADP-ribose)polymerase [PARP-1] enzyme inhibitory activity (Trevigen PARP Assay kit)
# Assay type: biochemical
# Conditions: PARP-1 enzyme, histone ribosylation, 450 nm; read-out: PARP-1 Inhibitory activity IC50
# Protocol: The activity of the compounds according to the present invention to inhibit the PARP-1 enzyme was examined using a PARP Assay kit (4671-096-K) purchased from Trevigen. The assay was performed following a modified previously reported method by Lee et al [Methods Find, Exp. Clin. Pharmacol., 27, 617-622, 2005].
# Histone was coated on 384-well plate, which is a small volume PS plate (784101) of Greiner Bio-One, and left at 25° C. for 2 hours. After that, the plate was rinsed four times with PBS (7.5 mM Na2HPO4, 2.5 mM NaH2PO4, 145 mM NaCl, pH 7.4), and in order to prevent non-specific reaction, the Strep-diluent (provided from kit of Trevigen) was added and left at 25° C. for one hour. After one hour, the plate was again rinsed with PBS four times, and the compounds of the Examples in various concentrations were put into reactant containing PARP-1 enzyme (0.12 unit/well), 2×PARP cocktail (1.95 mM NAD^+, 50 uM biotinylated NAD^+, and activated DNA in 50 mM Tris pH 8.0, 25 mM MgCl2) and allowed to react at 25° C. for 30 minutes. After 30 minutes, each well was rinsed with PBS four times, and in order to measure the amount of rybosylation by the PARP enzyme, strepavidin-linked peroxidase (Strep-HRP, 1:1000 diluted) was added and allowed to react at 37° C. for 30 minutes. The plate was rinsed with PBS four times, and TACS-Sapphire substrate was put and allowed to react at 25° C. for 10 minutes so that color reaction occurred. Finally, the reaction was terminated by the addition of 0.2 N HCl. The amount of histone ribosylation formed by PARP-1 enzyme was quantified at 450 nm using Wallac EnVision™ (PerkinElmer Oy, Turku, Finland).
# PARP-1 enzyme, sequence (P09874 whole entry): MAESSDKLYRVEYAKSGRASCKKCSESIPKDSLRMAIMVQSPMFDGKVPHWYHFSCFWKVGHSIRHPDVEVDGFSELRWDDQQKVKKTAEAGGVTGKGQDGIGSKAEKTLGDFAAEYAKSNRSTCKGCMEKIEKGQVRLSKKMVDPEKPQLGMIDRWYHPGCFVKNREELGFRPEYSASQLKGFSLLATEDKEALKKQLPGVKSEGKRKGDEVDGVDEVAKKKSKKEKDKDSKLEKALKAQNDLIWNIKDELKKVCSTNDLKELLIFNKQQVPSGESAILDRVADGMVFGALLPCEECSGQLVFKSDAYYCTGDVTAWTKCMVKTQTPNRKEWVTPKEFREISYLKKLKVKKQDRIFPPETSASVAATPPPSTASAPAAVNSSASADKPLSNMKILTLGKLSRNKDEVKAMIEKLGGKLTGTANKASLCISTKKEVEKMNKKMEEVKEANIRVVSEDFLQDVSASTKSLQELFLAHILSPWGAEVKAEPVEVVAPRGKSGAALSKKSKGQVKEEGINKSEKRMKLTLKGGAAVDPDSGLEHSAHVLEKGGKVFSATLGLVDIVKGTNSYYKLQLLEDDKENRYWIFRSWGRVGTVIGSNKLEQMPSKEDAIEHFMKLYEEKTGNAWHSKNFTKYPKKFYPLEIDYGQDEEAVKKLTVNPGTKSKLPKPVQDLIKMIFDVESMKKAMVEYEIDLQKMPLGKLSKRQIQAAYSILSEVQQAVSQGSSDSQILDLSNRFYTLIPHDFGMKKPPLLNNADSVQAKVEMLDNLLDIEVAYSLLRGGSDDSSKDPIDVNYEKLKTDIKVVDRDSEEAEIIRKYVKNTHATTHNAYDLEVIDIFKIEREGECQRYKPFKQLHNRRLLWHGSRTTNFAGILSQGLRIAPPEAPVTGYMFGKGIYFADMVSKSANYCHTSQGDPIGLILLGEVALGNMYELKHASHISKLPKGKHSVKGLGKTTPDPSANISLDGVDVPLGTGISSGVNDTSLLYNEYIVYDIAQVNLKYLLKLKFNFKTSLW
row,IC50 [nM],Structure (SMILES)
1,> 4000,"COc1ccc2c3c(c(=O)[nH]c2c1)CCCN3 [Example 1, 8-Methoxy-1,2,3,4-tetrahydrobenzo[h][1,6]naphthyridine-5(6H)-one hydrochloride]"
2,500,"COc1ccc2[nH]c(=O)c3c(c2c1)NCCC3 [Example 3, 9-Methoxy-1,2,3,4-tetrahydrobenzo[h][1,6]naphthyridine-5(6H)-one hydrochloride]"
3,> 4000,"CCCN1CCCc2c1c1cc(OC)ccc1[nH]c2=O [Example 6, 9-Methoxy-1-propyl-1,2,3,4-tetrahydrobenzo[h][1,6]naphthyridine-5(6H)-one hydrochloride]"
4,> 4000,"CN1CCCc2c1c1ccccc1[nH]c2=O [Example 7, 1-Methyl-1,2,3,4-tetrahydrobenzo[h][1,6]naphthyridine-5(6H)-one hydrochloride]"
5,> 4000,"COc1ccc2[nH]c(=O)c3c(c2c1)N(C)CCC3 [Example 8, 9-Methoxy-1-methyl-1,2,3,4-tetrahydrobenzo[h][1,6]naphthyridine-5(6H)-one hydrochloride]"
6,> 4000,"CCN1CCCc2c1c1cc(OC)ccc1[nH]c2=O [Example 9, 1-Ethyl-9-methoxy-1,2,3,4-tetrahydrobenzo[h][1,6]naphthyridine-5(6H)-one hydrochloride]"
7,> 4000,"CN1CCCc2c1c1cc(O)ccc1[nH]c2=O [Example 10, 1-Methyl-9-hydroxy-1,2,3,4-tetrahydrobenzo[h][1,6]naphthyridine-5(6H)-one hydrochloride]"
8,> 4000,"CN1CCC(Oc2ccc3[nH]c(=O)c4c(c3c2)N(C)CCC4)CC1 [Example 14, 1-Methyl-9-(1-methylpiperidine-4-yloxy)-1,2,3,4-tetrahydrobenzo[h][1,6]naphthyridine-5(6H)-one dihydrochloride]"
9,> 4000,"O=c1[nH]c2ccc(OCCCN3CCCCC3)cc2c2c1CCCN2 [Example 21, 9-[3-(Piperidine-1yl)propoxy]-1,2,3,4-tetrahydrobenzo[h][1,6]naphthyridine-5(6H)-one dihydrochloride]"
10,1080,"O=c1[nH]c2ccc(OCCO)cc2c2c1CCCN2 [Example 24, 9-(2-Hydroxyethoxy)-1,2,3,4-tetrahydrobenzo[h][1,6]naphthyridine-5(6H)-one hydrochloride]"
11,> 4000,"O=c1[nH]c2ccc(OCCc3ccccc3)cc2c2c1CCCN2 [Example 25, 9-Penethoxy-1,2,3,4-tetrahydrobenzo[h][1,6]naphthyridine-5(6H)-one dihydrochloride]"
12,> 4000,"CC[N+]1(CC)CCN(CCOc2ccc3[nH]c(=O)c4c(c3c2)NCCC4)CC1 [Example 28, 1,1-Diethyl-4-[2-(5-oxo-1,2,3,4,5,6-hexahydrobenzo[h][1,6]naphthyridine-9-yloxy]ethyl)piperazine-1-ium chloride]"
13,1070,"CN(C)CCc1ccc2[nH]c(=O)c3c(c2c1)NCCC3 [Example 31, 9-[2-(Dimethylamino)ethyl]-1,2,3,4-tetrahydrobenzo[h][1,6]naphthyridine-5(6H)-one dihydrochloride]"
14,930,"CN(C)CCN(C)Cc1ccc2c3c(c(=O)[nH]c2c1)CCCN3 [Example 54, 8-{[(2-(Dimethylaminoethyl)(methyl)amino]methyl}-1,2,3,4-tetrahydrobenzo[h][1,6]naphthyridine-5(6H)-one trihydrochloride]"

row,Structure (SMILES),IC50 [nM]
1,"CN(C)CCOc1ccc2[nH]c(=O)c3c(c2c1)NCCC3 [Example 16, 9-[2-(Dimethylamino)ethoxy]-1,2,3,4-tetrahydrobenzo[h][1,6]naphthyridine-5(6H)-one dihydrochloride]",< 1000
2,"CCN(CC)CCOc1ccc2[nH]c(=O)c3c(c2c1)NCCC3 [Example 26, 9-[2-(Diethylamino)ethoxy]-1,2,3,4-tetrahydrobenzo[h][1,6]naphthyridine-5(6H)-one dihydrochloride]",< 1000
3,"CN(C)CCCc1ccc2[nH]c(=O)c3c(c2c1)NCCC3 [Example 33, 9-[3-(Dimethylamino)propyl]-1,2,3,4-tetrahydrobenzo[h][1,6]naphthyridine-5(6H)-one dihydrochloride]",< 1000
4,"CNC(C)c1ccc2c3c(c(=O)[nH]c2c1)CCCN3 (stereo not shown) [Example 39, 8-[1-(Methylamino)ethyl]-1,2,3,4-tetrahydrobenzo[h][1,6]naphthyridine-5(6H)-one dihydrochloride]",< 1000

# Same assay, conditions: read-out: PARP-1 Inhibitory activity IC50
row,Structure (SMILES),IC50 [nM]
1,"CCCN1CCC(Oc2ccc3[nH]c(=O)c4c(c3c2)NCCC4)CC1 [Example 11, 9-(1-Propylpiperidine-4-yloxy)-1,2,3,4-tetrahydrobenzo[h][1,6]naphthyridine-5(6H)-one dihydrochloride]",1030
2,"CN1CCC(Oc2ccc3[nH]c(=O)c4c(c3c2)NCCC4)CC1 [Example 12, 9-(1-Methylpiperidine-4-yloxy)-1,2,3,4-tetrahydrobenzo[h][1,6]naphthyridine-5(6H)-one dihydrochloride]",1070
3,"CN1CCCc2c1c1cc(OC3CCNCC3)ccc1[nH]c2=O [Example 13, 1-Methyl-9-(piperidine-4-yloxy)-1,2,3,4-tetrahydrobenzo[h][1,6]naphthyridine-5(6H)-one dihydrochloride]",3850
4,"CN(C)CCOc1ccc2[nH]c(=O)c3c(c2c1)NCCC3 [Example 16, 9-[2-(Dimethylamino)ethoxy]-1,2,3,4-tetrahydrobenzo[h][1,6]naphthyridine-5(6H)-one dihydrochloride]",370
5,"O=c1[nH]c2ccc(OCCN3CCNCC3)cc2c2c1CCCN2 [Example 19, 9-[2-(Piperazine-1yl)ethoxy]-1,2,3,4-tetrahydrobenzo[h][1,6]naphthyridine-5(6H)-one trihydrochloride]",1480
6,"NCCOc1ccc2[nH]c(=O)c3c(c2c1)NCCC3 [Example 22, 9-(2-Aminoethoxy)-1,2,3,4-tetrahydrobenzo[h][1,6]naphthyridine-5(6H)-one dihydrochloride]",1160
7,"O=c1[nH]c2ccc(OCCN3CCC(c4ccccc4)CC3)cc2c2c1CCCN2 [Example 23, 9-[2-(4-Phenylpiperidine-1yl)ethoxy]-1,2,3,4-tetrahydrobenzo[h][1,6]naphthyridine-5(6H)-one dihydrochloride]",1430
8,"CCN(CC)CCOc1ccc2[nH]c(=O)c3c(c2c1)NCCC3 [Example 26, 9-[2-(Diethylamino)ethoxy]-1,2,3,4-tetrahydrobenzo[h][1,6]naphthyridine-5(6H)-one dihydrochloride]",390
9,"O=c1[nH]c2ccc(OCCN3CCOCC3)cc2c2c1CCCN2 [Example 27, 9-(2-Morpholinoethoxy)-1,2,3,4-tetrahydrobenzo[h][1,6]naphthyridine-5(6H)-one dihydrochloride]",2640
10,"CN1CCCc2c1c1cc(OCCN3CCCCC3)ccc1[nH]c2=O [Example 30, 1-Methyl-9-[2-(piperidine-1-yl)ethoxy]-1,2,3,4-tetrahydrobenzo[h][1,6]naphthyridine-5(6H)-one dihydrochloride]",3110
11,"CN(C)CCCc1ccc2[nH]c(=O)c3c(c2c1)NCCC3 [Example 33, 9-[3-(Dimethylamino)propyl]-1,2,3,4-tetrahydrobenzo[h][1,6]naphthyridine-5(6H)-one dihydrochloride]",930
12,"O=c1[nH]c2cc(OCCN3CCCCC3)ccc2c2c1CCCN2 [Example 35, 8-[2-(Piperidine-1yl)ethoxy]-1,2,3,4-tetrahydrobenzo[h][1,6]naphthyridine-5(6H)-one dihydrochloride]",3540
13,"CN(C)CCCOc1ccc2c3c(c(=O)[nH]c2c1)CCCN3 [Example 36, 8-[3-(Dimethylamino)propoxy]-1,2,3,4-tetrahydrobenzo[h][1,6]naphthyridine-5(6H)-one dihydrochloride]",3020
14,"CNC(C)c1ccc2c3c(c(=O)[nH]c2c1)CCCN3 (stereo not shown) [Example 39, 8-[1-(Methylamino)ethyl]-1,2,3,4-tetrahydrobenzo[h][1,6]naphthyridine-5(6H)-one dihydrochloride]",100
15,"CCc1ccc2c3c(c(=O)[nH]c2c1)CCCN3 [Example 40, 8-Ethyl-1,2,3,4-tetrahydrobenzo[h][1,6]naphthyridine-5(6H)-one hydrochloride]",> 4000
16,"CC(C)NCc1ccc2c3c(c(=O)[nH]c2c1)CCCN3 [Example 45, 8-[(Isopropylamino)methyl]-1,2,3,4-tetrahydrobenzo[h][1,6]naphthyridine-5(6H)-one dihydrochloride]",260
17,"CCCNCc1ccc2c3c(c(=O)[nH]c2c1)CCCN3 [Example 46, 8-[(Propylamino)methyl]-1,2,3,4-tetrahydrobenzo[h][1,6]naphthyridine-5(6H)-one dihydrochloride]",590
18,"O=c1[nH]c2cc(CN3CCOCC3)ccc2c2c1CCCN2 [Example 49, 8-(Morpholinomethyl)-1,2,3,4-tetrahydrobenzo[h][1,6]naphthyridine-5(6H)-one dihydrochloride]",620
19,"CN(C)Cc1ccc2[nH]c(=O)c3c(c2c1)NCCC3 [Example 50, 9-[(Dimethylamino)methyl]-1,2,3,4-tetrahydrobenzo[h][1,6]naphthyridine-5(6H)-one dihydrochloride]",320
20,"CN(Cc1ccccc1)Cc1ccc2c3c(c(=O)[nH]c2c1)CCCN3 [Example 51, 8-{[Benzyl(methyl)amino]methyl}-1,2,3,4-tetrahydrobenzo[h][1,6]naphthyridine-5(6H)-one dihydrochloride]",930
21,"CN1CCN(Cc2ccc3c4c(c(=O)[nH]c3c2)CCCN4)CC1 [Example 55, 8-[(4-Methylpiperazine-1-yl)methyl]-1,2,3,4-tetrahydrobenzo[h][1,6]naphthyridine-5(6H)-one trihydrochloride]",1720
22,"CCOC(=O)CCN(C)Cc1ccc2c3c(c(=O)[nH]c2c1)CCCN3 [Example 57, Ethyl-3-{methyl[(5-oxo-1,2,3,4,5,6-hexahydrobenzo[h][1,6]naphthyridine-8-yl)methyl]amino}propanoate dihydrochloride]",480
